Laboratory results reported in US7687473B2, “5-amino-4-imidazolecarboxamide riboside and its nucleobase as potentiators of antifolate transport and metabolism” (Health Research, Inc., priority 2005, dated 2010).
Values belong to the compound of their own block, whether it stands above or below them.

Key:
CCRF-CEM cells [1] = assay: [3H]MTX uptake (initial velocity and 30 min accumulation) in CCRF-CEM cells; format: cell-based, human
Experimental: (§1) Quantitation of folate and antifolate uptake. The method is essentially as follows. Briefly, logarithmically growing (3-5×10^5/ml) CCRF-CEM cells were harvested at room temperature by centrifugation at 1000×g for 5 min. After washing with the appropriate medium, cells were suspended at ≈2×10^7 cells/ml for use in transport studies. […] Anion-free MHS contains 250 mM sucrose and 20 mM HEPES, titrated to pH 7.4 with MgO. […] Uptake was measured as a function of time for 30 min (for rate and extent measurements) or over 5 min (studies requiring initial velocities). […] Uptake was terminated by diluting 100 μL samples into 1 ml of iced 0.9% NaCl. […] The supernatant was aspirated. The cell pellet was washed once with 1 ml iced 0.9% NaCl and centrifuged as above. The washed pellet was solubilized in 1 ml of 0.3% Triton X-100 by incubation for 60 min at 37° C. The solubilized pellet was transferred to a scintillation vial, 10 ml of Liquiscint (National Diagnostics, Atlanta, Ga.) was added and radioactivity was quantitated in a Beckman Model LS6500 liquid scintillation counter. Separate samples at the longest incubation time used in a particular experiment were harvested for HPLC analysis of intracellular contents as above, except that after the second wash the pellets were extracted with 1 ml boiling 0.1 M Na-phosphate, pH 5.5. The extract was clarified by centrifugation and the supernatant was filtered through an MPS-1 filter unit (Amicon) prior to HPLC analysis.

CCRF-CEM = settings: 10 μg/ml, within 5 min; cited from earlier work
CCRF-CEM cells [2] = assay: Effect of protein kinase inhibitors on [3H]MTX uptake; format: cell-based, human
Source text: To determine whether protein phosphorylation is involved in the mechanism of Z potentiation, we began studies with a series of protein kinase (PK) inhibitors (PKI).

CCRF-CEM cells [3] = assay: [3H]leucovorin uptake in CCRF-CEM cells; format: cell-based, human; settings: 1 μM [3H]LV; 10 min preincubation, 1 μM TMTX, 0.5 mM Z
Experimental: as §1

CCRF-CEM cells [4] = assay: Subcellular localization of [3H]MTX; format: cell-based, human; settings: 30 min uptake of 2 μM [3H]MTX; 2 μM TMTX, 500 μM Z
Experimental: Subcellular fractionation. […] Cells were diluted 9-fold in iced 0.9% NaCl, centrifuged at 1000×g for 5 min and washed once with 40 ml iced saline. All subsequent steps were performed at 4°. Cells were homogenized as previously described, except that hypotonic buffer at 20-fold the packed cell volume was used, and the homogenate was centrifuged for 6 min at 1000×g to yield a nuclear pellet (also containing unlysed cells and large debris) and a post-nuclear supernatant (PNS). Based on controls using nonradiolabeled cells, >91% of the cells would be lysed during homogenization. The PNS was centrifuged at 17,000×g to yield a combined mitochondria-lysosome pellet. The resulting supernatant was centrifuged at 100,000×g for 60 min to yield the 100,000×g supernatant (cytosol). The 100,000×g pellet (microsomes) and the combined mitochondria-lysosome pellet were each washed in isotonic buffer and centrifuged at their respective g-forces. All pellets were solubilized in 0.3% Triton X-100 by incubating at 37° for 1 hr; 1 ml was transferred to a scintillation vial for quantitation. Triton X-100 was added to the cytosol to a final concentration of 0.3% and a 1 ml aliquot was quantitated. Radioactivity in each fraction was corrected for a blank containing 0.3% Triton X-100.

[5] = biological target: T1, reduced folate carrier (RFC) (Homo sapiens, UniProt P41440); assay: Kinetic constants for influx of [3H]MTX by CCRF-CEM cells; format: cell-based; settings: influx of [3H]MTX; pre-incubation with solvent (MTX alone), 1 μM TMTX, or 1 μM TMTX + 0.5 mM Z
T1 construct: endogenous in cells; host or cells: CCRF-CEM (parental)
T1 sequence (P41440 1-591): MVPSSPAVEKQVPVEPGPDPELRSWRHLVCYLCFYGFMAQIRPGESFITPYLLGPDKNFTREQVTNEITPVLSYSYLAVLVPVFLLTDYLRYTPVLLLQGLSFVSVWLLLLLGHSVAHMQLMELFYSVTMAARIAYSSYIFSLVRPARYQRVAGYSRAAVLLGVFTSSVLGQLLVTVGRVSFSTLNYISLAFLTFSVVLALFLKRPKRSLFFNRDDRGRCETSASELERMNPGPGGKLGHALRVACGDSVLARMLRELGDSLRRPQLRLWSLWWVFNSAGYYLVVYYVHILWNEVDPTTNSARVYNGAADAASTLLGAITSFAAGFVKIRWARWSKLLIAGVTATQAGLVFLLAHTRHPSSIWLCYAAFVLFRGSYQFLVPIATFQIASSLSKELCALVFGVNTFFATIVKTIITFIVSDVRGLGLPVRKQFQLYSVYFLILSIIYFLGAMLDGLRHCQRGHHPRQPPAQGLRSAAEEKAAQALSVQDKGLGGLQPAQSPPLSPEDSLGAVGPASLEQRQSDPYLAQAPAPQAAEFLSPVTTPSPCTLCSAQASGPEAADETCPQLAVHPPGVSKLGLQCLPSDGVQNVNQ
Experimental: as §1
Inhibition of the vi of uptake was measured after pre-incubation of CCRF-CEM cells either with TMTX alone (measuring inhibition at the RFC) or with TMTX+Z (measuring inhibition during Z potentiation). […] All studies were carried out in standard transport medium. Inhibitory potency was measured in two series of experiments and AMT was included in each series as an internal control. Values are average±range of two determinations. […] Values are average±range for duplicate determinations.

SMILES: C[C@@H]1C[C@@H]([C@H](O)CC2CC(=O)NC(=O)C2)C(=O)[C@@H](C)C1 [CHX, cycloheximide]
- Potentiation of [3H]MTX influx by 0.5 mM Z after protein synthesis inhibition (CCRF-CEM cells [1]; 10 μg/ml CHX preincubated 10 min, Z added for last 5 min): potentiation still occurred
- Inhibition of protein synthesis (CCRF-CEM): completely inhibited

SMILES: O=c1c(O)c(-c2ccc(O)c(O)c2)oc2cc(O)cc(O)c12 [Quercetin, quercetin]
- Decrease of 30 min accumulation +TMTX+Z (CCRF-CEM cells [2]; 50 μM): 21%
- Decrease of initial influx rate (CCRF-CEM cells [2]; 50 μM): 43%
- Decrease of 30 min accumulation +TMTX+Z (CCRF-CEM cells [2]; 100 μM): 38%
- Decrease of initial influx rate (CCRF-CEM cells [2]; 100 μM): 55%
- Increase of uptake +TMTX at 30 min (CCRF-CEM cells [2]; 50 or 100 μM): 10-12%

- Relative radioactivity, Microsomes (CCRF-CEM cells [4]): 0.2%
- [3H]MTX/fraction, Microsomes (CCRF-CEM cells [4]): 0.7 pmol
- Kt [5]: 5.3 ± 0.6 µM
- Vmax [5]: 7.2 ± 0.6 pmol/min/10^7 cells
- Vmax/Kt [5]: 1.36
SMILES: COc1cc(NCc2ccc3nc(N)nc(N)c3c2C)cc(OC)c1OC [TMTX, trimetrexate]
- Extent of [3H]MTX accumulation at 30 min relative to absence of TMTX (CCRF-CEM cells [1]; 10 min preincubation with 2 μM TMTX, no Z): 90-100%
- Increase in 30 min accumulation (extent) of [3H]LV (CCRF-CEM cells [3]): 1.6 fold
- Increase in vi of [3H]LV uptake (CCRF-CEM cells [3]): 1.4 fold
- Relative radioactivity, Cytosol (CCRF-CEM cells [4]): 88.9%
- Relative radioactivity, Mito-Lysosomes (CCRF-CEM cells [4]): 0.4%
- Relative radioactivity, Nuclear Pellet (CCRF-CEM cells [4]): 10.5%
- Total [3H]MTX recovered in all four fractions (CCRF-CEM cells [4]): 338.4 pmol
- [3H]MTX/fraction, Cytosol (CCRF-CEM cells [4]): 300.3 pmol
- [3H]MTX/fraction, Mito-Lysosomes (CCRF-CEM cells [4]): 1.3 pmol
- [3H]MTX/fraction, Nuclear Pellet (CCRF-CEM cells [4]): 35.5 pmol
